In the supplement of paper PMC10307832:

How the values were obtained:
Test in all cases: relative viability (nuclei count vs DMSO), 5 days (fraction); higher = more cells survive
EPLC-272H = test system: EPLC-272H
How it was run: (§1)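 Lung cancer cell lines were seeded in 1536-well plates and dosed by pin tool the next day, with either a single drug or a fixed anchor-drug dose combined with five library-drug doses (not always all listed) spaced in √10 steps. Five days later, one step fixed the cells and stained their nuclei (final 0.05% Triton X-100, 1% formaldehyde, 1 ug/ml Hoechst), and nuclei were counted on 4× images. Relative viability is the nuclei count in treated wells divided by the count in vehicle wells, and each value is the median of duplicate plates.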

NCI-H520 = test system: NCI-H520
How it was run: as §1

NCI-H1651 = test system: NCI-H1651
How it was run: as §1

NCI-H2405 = test system: NCI-H2405
How it was run: as §1

NCI-H23 = test system: NCI-H23
How it was run: as §1

ChaGo-K-1 = test system: ChaGo-K-1
How it was run: as §1

NCI-H2087 = test system: NCI-H2087
How it was run: as §1

NCI-H322M = test system: NCI-H322M
How it was run: as §1

UMC-11 = test system: UMC-11
How it was run: as §1

SK-MES-1 = test system: SK-MES-1
How it was run: as §1

NCI-H1563 = test system: NCI-H1563
How it was run: as §1

NCI-H1944 = test system: NCI-H1944
How it was run: as §1

NCI-H1793 = test system: NCI-H1793
How it was run: as §1

NCI-H1993 = test system: NCI-H1993
How it was run: as §1

EMC-BAC-2 = test system: EMC-BAC-2
How it was run: as §1

NCI-H1395 = test system: NCI-H1395
How it was run: as §1

LCLC-97TM1 = test system: LCLC-97TM1
How it was run: as §1

NCI-H1355 = test system: NCI-H1355
How it was run: as §1

LCLC-103H = test system: LCLC-103H
How it was run: as §1

H3255 = test system: H3255
How it was run: as §1

NCI-H2085 = test system: NCI-H2085
How it was run: as §1

HCC-827 = test system: HCC-827
How it was run: as §1

NCI-H650 = test system: NCI-H650
How it was run: as §1

Clc1ccc(Nc2nnc(Cc3ccncc3)c3ccccc23)cc1 [Vatalanib] + COc1cc2c(Oc3ccc(NC(=O)C4(C(=O)Nc5ccc(F)cc5)CC4)cc3F)ccnc2cc1OCCCN1CCOCC1 [Foretinib] (partner 0.25 µM)
relative viability (EPLC-272H; first compound 0.04 µM): 0.645 | relative viability (EPLC-272H; first compound 0.1265 µM): 0.711 | relative viability (EPLC-272H; first compound 0.4 µM): 0.763 | relative viability (EPLC-272H; first compound 1.265 µM): 0.669 | relative viability (EPLC-272H; first compound 4 µM): 0.841 | relative viability (NCI-H520; first compound 0.04 µM): 0.875 | relative viability (NCI-H520; first compound 0.1265 µM): 0.662 | relative viability (NCI-H520; first compound 0.4 µM): 0.781 | relative viability (NCI-H520; first compound 1.265 µM): 0.842 | relative viability (NCI-H520; first compound 4 µM): 0.697 | relative viability (NCI-H1651; first compound 0.04 µM): 0.885 | relative viability (NCI-H1651; first compound 0.1265 µM): 0.768 | relative viability (NCI-H1651; first compound 0.4 µM): 0.94 | relative viability (NCI-H1651; first compound 1.265 µM): 0.803 | relative viability (NCI-H1651; first compound 4 µM): 0.817 | relative viability (NCI-H2405; first compound 0.04 µM): 1.04 | relative viability (NCI-H2405; first compound 0.1265 µM): 1.06 | relative viability (NCI-H2405; first compound 1.265 µM): 1.02 | relative viability (NCI-H2405; first compound 4 µM): 0.965 | relative viability (NCI-H23; first compound 0.04 µM): 0.928 | relative viability (NCI-H23; first compound 0.1265 µM): 0.945 | relative viability (NCI-H23; first compound 0.4 µM): 0.931 | relative viability (NCI-H23; first compound 1.265 µM): 0.796 | relative viability (NCI-H23; first compound 4 µM): 1.02 | relative viability (ChaGo-K-1; first compound 0.04 µM): 1 | relative viability (ChaGo-K-1; first compound 0.1265 µM): 0.916 | relative viability (ChaGo-K-1; first compound 0.4 µM): 0.976 | relative viability (ChaGo-K-1; first compound 1.265 µM): 0.881 | relative viability (ChaGo-K-1; first compound 4 µM): 0.893 | relative viability (NCI-H2087; first compound 0.04 µM): 1.15 | relative viability (NCI-H2087; first compound 0.1265 µM): 1.08 | relative viability (NCI-H2087; first compound 0.4 µM): 1.27 | relative viability (NCI-H2087; first compound 1.265 µM): 0.958 | relative viability (NCI-H2087; first compound 4 µM): 1.03 | relative viability (NCI-H322M; first compound 0.04 µM): 1 | relative viability (NCI-H322M; first compound 0.1265 µM): 0.974 | relative viability (NCI-H322M; first compound 0.4 µM): 1.03 | relative viability (NCI-H322M; first compound 1.265 µM): 0.878 | relative viability (NCI-H322M; first compound 4 µM): 0.896 | relative viability (UMC-11; first compound 0.04 µM): 1.12 | relative viability (UMC-11; first compound 0.1265 µM): 0.94 | relative viability (UMC-11; first compound 0.4 µM): 0.916 | relative viability (UMC-11; first compound 1.265 µM): 0.94 | relative viability (UMC-11; first compound 4 µM): 1.02 | relative viability (SK-MES-1; first compound 0.04 µM): 1.02 | relative viability (SK-MES-1; first compound 0.1265 µM): 0.82 | relative viability (SK-MES-1; first compound 0.4 µM): 0.943 | relative viability (SK-MES-1; first compound 1.265 µM): 0.881 | relative viability (SK-MES-1; first compound 4 µM): 0.692 | relative viability (NCI-H1563; first compound 0.04 µM): 0.92 | relative viability (NCI-H1563; first compound 0.1265 µM): 0.874 | relative viability (NCI-H1563; first compound 0.4 µM): 0.995 | relative viability (NCI-H1563; first compound 1.265 µM): 0.875 | relative viability (NCI-H1563; first compound 4 µM): 0.901 | relative viability (NCI-H1944; first compound 0.04 µM): 0.934 | relative viability (NCI-H1944; first compound 0.1265 µM): 0.891 | relative viability (NCI-H1944; first compound 0.4 µM): 0.936 | relative viability (NCI-H1944; first compound 1.265 µM): 0.892 | relative viability (NCI-H1944; first compound 4 µM): 0.87 | relative viability (NCI-H1793; first compound 0.04 µM): 0.769 | relative viability (NCI-H1793; first compound 0.1265 µM): 0.787 | relative viability (NCI-H1793; first compound 0.4 µM): 0.686 | relative viability (NCI-H1793; first compound 1.265 µM): 0.663 | relative viability (NCI-H1793; first compound 4 µM): 0.608 | relative viability (NCI-H1993; first compound 0.04 µM): 0.739 | relative viability (NCI-H1993; first compound 0.1265 µM): 0.745 | relative viability (NCI-H1993; first compound 0.4 µM): 0.806 | relative viability (NCI-H1993; first compound 1.265 µM): 0.739 | relative viability (NCI-H1993; first compound 4 µM): 0.75 | relative viability (EMC-BAC-2; first compound 0.04 µM): 0.826 | relative viability (EMC-BAC-2; first compound 0.1265 µM): 1.01 | relative viability (EMC-BAC-2; first compound 0.4 µM): 1.09 | relative viability (EMC-BAC-2; first compound 1.265 µM): 0.919 | relative viability (EMC-BAC-2; first compound 4 µM): 1.02 | relative viability (NCI-H1395; first compound 0.04 µM): 0.994 | relative viability (NCI-H1395; first compound 0.1265 µM): 1.1 | relative viability (NCI-H1395; first compound 0.4 µM): 1.08 | relative viability (NCI-H1395; first compound 1.265 µM): 0.938 | relative viability (NCI-H1395; first compound 4 µM): 1.02 | relative viability (LCLC-97TM1; first compound 0.04 µM): 0.975 | relative viability (LCLC-97TM1; first compound 0.1265 µM): 0.833 | relative viability (LCLC-97TM1; first compound 0.4 µM): 1.01 | relative viability (LCLC-97TM1; first compound 1.265 µM): 0.949 | relative viability (LCLC-97TM1; first compound 4 µM): 0.835 | relative viability (NCI-H1355; first compound 0.04 µM): 1.01 | relative viability (NCI-H1355; first compound 0.1265 µM): 1.01 | relative viability (NCI-H1355; first compound 0.4 µM): 1.02 | relative viability (NCI-H1355; first compound 1.265 µM): 0.847 | relative viability (NCI-H1355; first compound 4 µM): 0.971 | relative viability (LCLC-103H; first compound 0.04 µM): 0.829 | relative viability (LCLC-103H; first compound 0.1265 µM): 0.705 | relative viability (LCLC-103H; first compound 0.4 µM): 0.752 | relative viability (LCLC-103H; first compound 1.265 µM): 0.739 | relative viability (LCLC-103H; first compound 4 µM): 0.756 | relative viability (H3255; first compound 0.04 µM): 0.763 | relative viability (H3255; first compound 0.1265 µM): 0.917 | relative viability (H3255; first compound 0.4 µM): 0.64 | relative viability (H3255; first compound 1.265 µM): 0.829 | relative viability (H3255; first compound 4 µM): 0.789 | relative viability (NCI-H2085; first compound 0.04 µM): 1.07 | relative viability (NCI-H2085; first compound 0.1265 µM): 0.879 | relative viability (NCI-H2085; first compound 0.4 µM): 0.854 | relative viability (NCI-H2085; first compound 1.265 µM): 0.996 | relative viability (NCI-H2085; first compound 4 µM): 0.818 | relative viability (HCC-827; first compound 0.04 µM): 1.07 | relative viability (HCC-827; first compound 0.1265 µM): 1.09 | relative viability (HCC-827; first compound 0.4 µM): 0.942 | relative viability (HCC-827; first compound 1.265 µM): 0.927 | relative viability (HCC-827; first compound 4 µM): 1.03 | relative viability (NCI-H650; first compound 0.04 µM): 1.08 | relative viability (NCI-H650; first compound 0.1265 µM): 1.01 | relative viability (NCI-H650; first compound 1.265 µM): 0.973 | relative viability (NCI-H650; first compound 4 µM): 0.978
